Patent US8609719B2, “Propargylated aminoindans, processes for preparation, and uses thereof” (priority 2006, dated 2013)
Where a name gives a salt, the structure may show the parent alone.

Experiments:
MAO-A = target: T1, MAO-A (Rattus norvegicus, UniProt P21396); test: Inhibition of MAO activity in vitro (5-HT substrate); assay type: biochemical
T1 construct: from tissue; host or cells: brain, liver and intestine (duodenum) of dosed rats
T1 sequence (P21396 1-526): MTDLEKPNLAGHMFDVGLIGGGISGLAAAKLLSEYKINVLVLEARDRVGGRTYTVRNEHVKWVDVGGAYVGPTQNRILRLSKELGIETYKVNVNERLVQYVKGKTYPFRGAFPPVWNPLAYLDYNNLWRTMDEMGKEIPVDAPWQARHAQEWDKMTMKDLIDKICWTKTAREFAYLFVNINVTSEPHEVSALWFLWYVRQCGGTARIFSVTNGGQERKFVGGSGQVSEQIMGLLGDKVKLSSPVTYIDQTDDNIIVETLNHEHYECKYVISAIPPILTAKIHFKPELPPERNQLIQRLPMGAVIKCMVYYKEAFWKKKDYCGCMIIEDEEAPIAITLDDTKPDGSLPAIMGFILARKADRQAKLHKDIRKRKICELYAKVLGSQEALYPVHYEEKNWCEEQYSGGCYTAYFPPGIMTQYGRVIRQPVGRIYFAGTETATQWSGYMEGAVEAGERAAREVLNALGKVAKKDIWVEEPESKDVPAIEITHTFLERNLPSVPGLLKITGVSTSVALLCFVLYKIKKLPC
Protocol: The MAO enzyme source was a homogenate of rat brain in 0.3M sucrose. The homogenate was diluted appropriately, and pre-incubated with serial dilutions of test compounds—diluted in phosphate buffer containing clogyline when 2-phenylethylamine (PEA) is the substrate, and diluted in phosphate buffer containing selegiline when 5-hydroxytryptamine (5-HT) is the substrate—for 60 minutes at 37° C. 14C-Labeled substrates (PEA for MAO-B determination and 5-HT for MAO-A determination) were then added, and the incubation continued for a further 20 minutes (PEA) or 30 minutes (5-HT). Substrate concentrations used were 10 μM (PEA) and 100 uM (5-HT). Enzyme concentration was chosen so that not more than 10% of the substrate was metabolized during the course of the reaction. Deaminated products were extracted into toluene-ethyl acetate (1:1 v/v) containing 0.4% (w/v) 2,5-diphenyloxazole (ppo) prior to determination by liquid scintillation counting. Radioactivity in the eluate indicated the production of neutral and acidic metabolites formed as a result of MAO activity. Activity of MAO in the sample was expressed as a percentage of control activity in the absence of inhibitor after subtraction of appropriate blank values. The activity determined using PEA as substrate is referred to as MAO-B, and that determined using 5-HT as MAO-A.
Concentrations of each inhibitor producing 50% inhibition of substrate metabolism (IC50) were calculated from the inhibition curves, and are shown in Table 1.

BuChE from human serum = target: T2, BuChE from human serum (Homo sapiens, UniProt P06276); test: Inhibition of butyrylcholinesterase activity in vitro (Ellman, stopped time assay); assay type: biochemical; set-up: ki (bimolecular rate constant): unit not given here
T2 construct: BuChE from human serum (C-9971); purchased Sigma-Aldrich Israel C-9971; host or cells: purified from human serum
T2 sequence (P06276 29-602): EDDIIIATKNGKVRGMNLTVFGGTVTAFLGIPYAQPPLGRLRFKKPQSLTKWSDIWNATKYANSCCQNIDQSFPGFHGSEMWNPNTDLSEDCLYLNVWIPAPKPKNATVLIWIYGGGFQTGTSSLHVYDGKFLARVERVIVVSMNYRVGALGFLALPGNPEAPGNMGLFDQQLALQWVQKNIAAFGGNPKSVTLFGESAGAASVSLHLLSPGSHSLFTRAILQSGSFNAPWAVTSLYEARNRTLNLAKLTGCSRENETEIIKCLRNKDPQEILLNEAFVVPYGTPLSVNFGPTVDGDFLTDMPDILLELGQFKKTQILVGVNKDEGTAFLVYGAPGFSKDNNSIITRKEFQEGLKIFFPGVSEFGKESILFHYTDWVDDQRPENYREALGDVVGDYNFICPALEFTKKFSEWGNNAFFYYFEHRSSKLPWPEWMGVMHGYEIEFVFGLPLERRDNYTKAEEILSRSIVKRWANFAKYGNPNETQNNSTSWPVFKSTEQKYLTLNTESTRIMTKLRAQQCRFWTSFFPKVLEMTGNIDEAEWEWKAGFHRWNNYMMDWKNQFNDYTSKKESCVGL
Protocol: BuChE from human serum (C-9971), butyrylthiocholine iodide (BuTh, B3253), bovine serum albumin (BSA, A-2153) 5,5′-dithiobis(2-nitrobenzoic acid) (DTNB, D8130) were obtained from Sigma-Aldrich Israel. BuChE was dissolved in phosphate buffer pH 8.0 containing 0.01% sodium azide (NaAz) and 1 mM EDTA and diluted to give a concentration of 35.9 units/ml. This solution was divided into aliquots of 0.5 ml, which were stored at −70° C. until use.
The inhibitory activity against BuChE was determined by the method of Ellmann et al. (Biochemical Pharmacology, 1961 (7) 88-95) using BuTh as a substrate. To characterize the carbamoylation step, a traditional stopped time assay was performed, in which BuChE was incubated at 37° C. with a minimum of 5 different concentrations of inhibitor in the assay buffer, and aliquots were transferred to an ELISA multiscan microplate reader (Labsystems) at various times for the determination of residual BuChE activity, with Ascent PC® software. The rate of reaction was measured at 412λ at 37° C. in 0.2 ml wells containing […] 0.023 units per ml, DTNB 0.4-0.5 mM, AcTh 0.50 or 1 mM and BSA (0.05%) in 50 mM phosphate buffer as described above. For all compounds measurements were made every 2 min for 15 min and then every 15 min for 3 hr.
The inhibition of BuChE by carbamates involves the formation of a reversible complex (EOH•CX), followed by carbamoylation of the enzyme to form (EOC) and a leaving group (HX). The carbamoylated enzyme is then hydrolyzed by water to regenerate the free enzyme (EOH). The formation of the reversible complex is represented by the equilibrium constant: KD. For the carbamoylation phase of the inhibition process the unimolecular rate constant is represented by kmax, and the bimolecular rate constant by ki.

[1] = Pharmacokinetic analysis of ladostigil and metabolites in Alzheimer's disease patients; conditions: human, in vivo, 100 mg; for Cmax / AUC / AUC(0-t): after ladostigil tartrate 100 mg twice daily; for concentration at 12 h: mean concentration at pre-dose, 12 hours after the previous dose of ladostigil tartrate; for AUC: AUC (M)

With `CNC(=O)Oc1ccc2c(c1)[C@H](N)CC2` [R-MCAI, Methyl-carbamic acid 3-R-amino-indan-5-yl ester hydrochloride] the IC50 (MAO-A) was 32.2 µM, the Kd (BuChE from human serum) was 36 ± 5 µM and the “inhibition of butyrylcholinesterase, in words” value (BuChE from human serum) was “potent inhibitors”. For the same compound, the “ki (bimolecular rate constant)” value (BuChE from human serum; BuChE, 37° C.) was 14.5 ± 0.42, the “kmax (unimolecular carbamoylation rate constant)” value (BuChE from human serum; BuChE, 37° C.) was 0.516 ± 0.050 min⁻¹ and the half-life ([1]; both) was 8.09 h. The Cmax ([1]; both, Cmax (M), mean, mean of patients, maintenance analysis Week 4) was 2.7e-07 M, the Cmax ([1]; both, Cmax (T), mean, mean of patients, termination analysis Week 9) was 2.61e-07 M and the concentration at 12 h ([1]; both, Cmin (M), mean of patients, maintenance analysis Week 4) was 1.53e-07 M. For the same compound, the concentration at 12 h ([1]; both, Cmin (T), mean of patients, termination analysis Week 9) was 1.39e-07 M, the AUC ([1]; Patient 1, maintenance analysis Week 4) was 62 ng·h/mL and the AUC ([1]; Patient 2, maintenance analysis Week 4) was 121 ng·h/mL. The AUC ([1]; Patient 3, maintenance analysis Week 4) was 172 ng·h/mL, the AUC ([1]; Patient 4, maintenance analysis Week 4) was 191 ng·h/mL and the AUC ([1]; Patient 5, maintenance analysis Week 4) was 171 ng·h/mL. For the same compound, the AUC ([1]; Patient 6, maintenance analysis Week 4) was 144 ng·h/mL, the AUC ([1]; Patient 7, maintenance analysis Week 4) was 213 ng·h/mL and the AUC ([1]; Patient 8, maintenance analysis Week 4) was 86 ng·h/mL. It also gave an AUC(0-t) ([1]; Patient 1, termination analysis Week 9) of 570 ng·h/mL, an AUC(0-t) ([1]; Patient 2, termination analysis Week 9) of 733 ng·h/mL and an AUC(0-t) ([1]; Patient 3, termination analysis Week 9) of 958 ng·h/mL. It also gave an AUC(0-t) ([1]; Patient 4, termination analysis Week 9) of 672 ng·h/mL, an AUC(0-t) ([1]; Patient 5, termination analysis Week 9) of 895 ng·h/mL and an AUC(0-t) ([1]; Patient 6, termination analysis Week 9) of 964 ng·h/mL. The AUC(0-t) ([1]; Patient 7, termination analysis Week 9) was 186 ng·h/mL, the AUC(0-t) ([1]; Patient 8, termination analysis Week 9) was 426 ng·h/mL and the Cmax ([1]; Cmax (M), Patient 1, maintenance analysis Week 4) was 1e-07 M. For the same compound, the Cmax ([1]; Cmax (M), Patient 2, maintenance analysis Week 4) was 2e-07 M, the Cmax ([1]; Cmax (M), Patient 3, maintenance analysis Week 4) was 3e-07 M and the Cmax ([1]; Cmax (M), Patient 4, maintenance analysis Week 4) was 3e-07 M. The Cmax ([1]; Cmax (M), Patient 5, maintenance analysis Week 4) was 3e-07 M, the Cmax ([1]; Cmax (M), Patient 6, maintenance analysis Week 4) was 3e-07 M and the Cmax ([1]; Cmax (M), Patient 7, maintenance analysis Week 4) was 4e-07 M. The Cmax ([1]; Cmax (M), Patient 8, maintenance analysis Week 4) was 2e-07 M, the Cmax ([1]; Cmax (T), Patient 1, termination analysis Week 9) was 2e-07 M and the Cmax ([1]; Cmax (T), Patient 2, termination analysis Week 9) was 2e-07 M. The Cmax ([1]; Cmax (T), Patient 3, termination analysis Week 9) was 3e-07 M, the Cmax ([1]; Cmax (T), Patient 4, termination analysis Week 9) was 2e-07 M and the Cmax ([1]; Cmax (T), Patient 5, termination analysis Week 9) was 4e-07 M. It also gave a Cmax ([1]; Cmax (T), Patient 6, termination analysis Week 9) of 3e-07 M, a Cmax ([1]; Cmax (T), Patient 7, termination analysis Week 9) of 2e-07 M and a Cmax ([1]; Cmax (T), Patient 8, termination analysis Week 9) of 2e-07 M.
